In BindingDB's records for doi:10.1016/j.ejmech.2021.113474 (Yanbian University, 2021):

Molecular target: Hypoxia-inducible factor 1-alpha (Homo sapiens, UniProt Q16665)
Assay: Inhibition of hypoxia-induced HIF1alpha transcriptional activity in human Hep3B cells co-transfected with luciferase reporter plasmid containing six copies of HREs and pRL-CMV vector assessed as reduction in luciferase activity incubated for 24 hrs under hypoxic condition by HRE-dependent dual luciferase reporter gene assay

Sequence of Hypoxia-inducible factor 1-alpha (Q16665 whole entry): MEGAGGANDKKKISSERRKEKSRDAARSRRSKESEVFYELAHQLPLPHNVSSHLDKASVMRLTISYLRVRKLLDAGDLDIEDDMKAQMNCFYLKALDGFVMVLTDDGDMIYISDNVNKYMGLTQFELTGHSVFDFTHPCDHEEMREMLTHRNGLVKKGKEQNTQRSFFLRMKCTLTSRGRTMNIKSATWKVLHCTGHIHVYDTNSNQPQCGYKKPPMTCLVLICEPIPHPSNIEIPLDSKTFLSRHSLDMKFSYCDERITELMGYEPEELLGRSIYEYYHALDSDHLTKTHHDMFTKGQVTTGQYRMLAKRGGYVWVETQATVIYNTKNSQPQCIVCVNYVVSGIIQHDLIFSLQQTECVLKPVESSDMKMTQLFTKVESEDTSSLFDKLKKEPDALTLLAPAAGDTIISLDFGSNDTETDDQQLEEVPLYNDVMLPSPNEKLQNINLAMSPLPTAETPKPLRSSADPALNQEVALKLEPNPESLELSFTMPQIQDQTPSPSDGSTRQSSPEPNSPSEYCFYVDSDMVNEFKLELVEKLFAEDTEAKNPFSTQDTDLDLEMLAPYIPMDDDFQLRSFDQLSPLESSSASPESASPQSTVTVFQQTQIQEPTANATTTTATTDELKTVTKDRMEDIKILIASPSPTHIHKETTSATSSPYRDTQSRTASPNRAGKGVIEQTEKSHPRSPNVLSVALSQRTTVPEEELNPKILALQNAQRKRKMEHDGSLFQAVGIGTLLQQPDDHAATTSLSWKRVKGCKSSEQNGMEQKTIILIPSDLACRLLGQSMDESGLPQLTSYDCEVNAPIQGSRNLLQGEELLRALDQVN

Row | Compound | IC50 [nM]
1 | C=c1c(O)c(O)cc2c1=CC=C1[C@@]2(C)CC[C@@]2(C)[C@@H]3C[C@](C)(C(=O)O)CC[C@]3(C)CC[C@]12C | 250
2 | CC1=C(O)C(=O)C=C2C1=CC=C1[C@@]2(C)CC[C@@]2(C)[C@@H]3C[C@](C)(C(=O)OCC(=O)Nc4ccc(F)cn4)CC[C@]3(C)CC[C@]12C | 250
3 | CC1=C(O)C(=O)C=C2C1=CC=C1[C@@]2(C)CC[C@@]2(C)[C@@H]3C[C@](C)(C(=O)OCC(=O)Nc4ccc5ncccc5c4)CC[C@]3(C)CC[C@]12C | 240
4 | CC1=C(O)C(=O)C=C2C1=CC=C1[C@@]2(C)CC[C@@]2(C)[C@@H]3C[C@](C)(C(=O)OCC(=O)Nc4cc(C)on4)CC[C@]3(C)CC[C@]12C | 70
5 | CC1=C(O)C(=O)C=C2C1=CC=C1[C@@]2(C)CC[C@@]2(C)[C@@H]3C[C@](C)(C(=O)OCC(=O)Nc4cnc5ccccc5c4)CC[C@]3(C)CC[C@]12C | 90
6 | CC1=C(O)C(=O)C=C2C1=CC=C1[C@@]2(C)CC[C@@]2(C)[C@@H]3C[C@](C)(C(=O)OCCOc4cc(=O)oc5ccccc45)CC[C@]3(C)CC[C@]12C | 150
7 | CC1=C(O)C(=O)C=C2C1=CC=C1[C@@]2(C)CC[C@@]2(C)[C@@H]3C[C@](C)(C(=O)OCC(=O)NCc4cn(-c5ccc(Cl)cc5)nn4)CC[C@]3(C)CC[C@]12C | > 30000
8 | CC1=C(O)C(=O)C=C2C1=CC=C1[C@@]2(C)CC[C@@]2(C)[C@@H]3C[C@](C)(C(=O)OCC(=O)Nc4cccc5ncccc45)CC[C@]3(C)CC[C@]12C | 360
9 | CCOP(=O)(OCC)C(NC(=O)COC(=O)[C@]1(C)CC[C@]2(C)CC[C@]3(C)C4=CC=C5C(=CC(=O)C(O)=C5C)[C@]4(C)CC[C@@]3(C)[C@@H]2C1)c1ccc(OC)cc1 (stereo not given in full) | 160
10 | CC1=C(O)C(=O)C=C2C1=CC=C1[C@@]2(C)CC[C@@]2(C)[C@@H]3C[C@](C)(C(=O)OCC(=O)Nc4cccc5cccnc45)CC[C@]3(C)CC[C@]12C | 350
11 | CC1=C(O)C(=O)C=C2C1=CC=C1[C@@]2(C)CC[C@@]2(C)[C@@H]3C[C@](C)(C(=O)OCC(=O)NCc4cn(-c5ccccc5)nn4)CC[C@]3(C)CC[C@]12C | 600
12 | CC1=C(O)C(=O)C=C2C1=CC=C1[C@@]2(C)CC[C@@]2(C)[C@@H]3C[C@](C)(C(=O)OCCOc4cnc5ccccc5c4)CC[C@]3(C)CC[C@]12C | 50
13 | CC1=C(O)C(=O)C=C2C1=CC=C1[C@@]2(C)CC[C@@]2(C)[C@@H]3C[C@](C)(C(=O)OCC(=O)NCc4cn(-c5ccc(Cl)c(Cl)c5)nn4)CC[C@]3(C)CC[C@]12C | 120
14 | CCOP(=O)(OCC)C(NC(=O)COC(=O)[C@]1(C)CC[C@]2(C)CC[C@]3(C)C4=CC=C5C(=CC(=O)C(O)=C5C)[C@]4(C)CC[C@@]3(C)[C@@H]2C1)c1ccccc1 (stereo not given in full) | 240
15 | CCOP(=O)(OCC)C(NC(=O)COC(=O)[C@]1(C)CC[C@]2(C)CC[C@]3(C)C4=CC=C5C(=CC(=O)C(O)=C5C)[C@]4(C)CC[C@@]3(C)[C@@H]2C1)c1ccc(F)cc1 (stereo not given in full) | > 30000
16 | CC1=C(O)C(=O)C=C2C1=CC=C1[C@@]2(C)CC[C@@]2(C)[C@@H]3C[C@](C)(C(=O)OCC(=O)Nc4ccncc4)CC[C@]3(C)CC[C@]12C | 32000
17 | CCOP(=O)(OCC)C(NC(=O)COC(=O)[C@]1(C)CC[C@]2(C)CC[C@]3(C)C4=CC=C5C(=CC(=O)C(O)=C5C)[C@]4(C)CC[C@@]3(C)[C@@H]2C1)c1ccc(C)cc1 (stereo not given in full) | > 30000
18 | CC1=C(O)C(=O)C=C2C1=CC=C1[C@@]2(C)CC[C@@]2(C)[C@@H]3C[C@](C)(C(=O)OCCOc4ccc5cccnc5c4)CC[C@]3(C)CC[C@]12C | 170
19 | CC1=C(O)C(=O)C=C2C1=CC=C1[C@@]2(C)CC[C@@]2(C)[C@@H]3C[C@](C)(C(=O)OCC(=O)Nc4ccc(F)nc4)CC[C@]3(C)CC[C@]12C | 160
20 | CC1=C(O)C(=O)C=C2C1=CC=C1[C@@]2(C)CC[C@@]2(C)[C@@H]3C[C@](C)(C(=O)OCCOc4ccc5ccc(=O)oc5c4)CC[C@]3(C)CC[C@]12C | 80
21 | CC1=C(O)C(=O)C=C2C1=CC=C1[C@@]2(C)CC[C@@]2(C)[C@@H]3C[C@](C)(C(=O)OCCOc4cccc5ncccc45)CC[C@]3(C)CC[C@]12C | > 30000
22 | CC1=C(O)C(=O)C=C2C1=CC=C1[C@@]2(C)CC[C@@]2(C)[C@@H]3C[C@](C)(C(=O)OCC(=O)Nc4ccnc5ccccc45)CC[C@]3(C)CC[C@]12C | 490
23 | CC1=C(O)C(=O)C=C2C1=CC=C1[C@@]2(C)CC[C@@]2(C)[C@@H]3C[C@](C)(C(=O)OCC(=O)NCc4cn(-c5ccc(C)cc5)nn4)CC[C@]3(C)CC[C@]12C | > 30000
24 | CC1=C(O)C(=O)C=C2C1=CC=C1[C@@]2(C)CC[C@@]2(C)[C@@H]3C[C@](C)(C(=O)OCCOc4cc(C)oc(=O)c4)CC[C@]3(C)CC[C@]12C | 150
25 | COc1ccc(-n2cc(CNC(=O)COC(=O)[C@]3(C)CC[C@]4(C)CC[C@]5(C)C6=CC=C7C(=CC(=O)C(O)=C7C)[C@]6(C)CC[C@@]5(C)[C@@H]4C3)nn2)cc1 | > 30000
